Tests used:
stability of the salt = assay type: physicochemical; settings: compared with the sodium salt of Compound A
[1] = oral bioavailability and pharmacokinetics in rats; assay type: in vivo; settings: relative to amorphous and crystalline Compound A
[2] = oral bioavailability and pharmacokinetics in dogs; assay type: in vivo; settings: relative to amorphous and crystalline Compound A
hygroscopicity = assay type: physicochemical; settings: compared with the sodium salt of Compound A
[3] = pharmacokinetics in animal models; assay type: in vivo; settings: over the free base
solubility in water = assay type: physicochemical; settings: compared to the free base
[4] = test system: HIV infection of T-lymphoid cells; assay: inhibition of acute HIV infection of T-lymphoid cells; assay type: cell-based; settings: in accordance with Vacca et al.
HIV integrase = molecular target: T1, HIV integrase (Human immunodeficiency virus type 1 group M subtype B, UniProt P04585); assay: integrase inhibition assay in which strand transfer is catalyzed by recombinant integrase; assay type: biochemical; settings: assay of Example 193 of WO 02/30930
T1 construct: strand transfer is catalyzed by recombinant integrase
Description: Compound A is an inhibitor of HIV integrase. […] The strand transfer assay is described in Example 193 of WO 02/30930.

[5] = solubility in ethanol containing water; assay type: physicochemical; settings: ethanol containing 1 to 5 vol. % and 10 vol% water
Protocol: Experiments have been conducted in which the Compound A K salt ethanolate of the present invention was slurried in ethanol containing 1, 2, 3, 4, 5 and 10 vol. % water, followed by measurement of the XRPD patterns of the collected crystals. In addition, the solubility of the Compound A K salt ethanolate was also determined for the 1 to 5 vol. % and 10 vol% water in ethanol solutions. […] Accordingly, it is believed that the crystalline ethanolate hydrate material of the present invention exists as a water-ethanol isomorphic co-solvate. […] In accordance with these experimental results, the crystalline potassium salt ethanolate of Compound A of the invention can contain water as a co-solvate up to a maximum water content, beyond which the crystalline salt (as shown by the XRPD and solubility results described above) changes to another form.

[6] = listed as crystalline potassium salt of Compound A

With `CNC(=O)c1cc(F)ccc1CNC(=O)c1nc(N2CCCCS2(=O)=O)c2cccnc2c1[O-].[K+]` [potassium salt of Compound A, Potassium 5-(1,1-dioxido-1,2-thiazinan-2-yl)-7-[({4-fluoro-2-[(methylamino)-carbonyl]benzyl}amino)carbonyl]-1,6-naphthyridin-8-olate] as the molecule, how does the stability (stability of the salt) read?
Its stability is “more stable”.

What about the stability (stability of the salt; [6]) of the same molecule?
Its stability is “improved”.

What about the AUC [1] of the same molecule?
Its AUC is “improved”.

What about the Cmax [1] of the same molecule?
Its Cmax is “improved”.

And the oral bioavailability [1]?
The oral bioavailability was “superior”.

What about the AUC [2] of the same molecule?
Its AUC is “improved”.

What about the Cmax [2] of the same molecule?
The Cmax was “improved”.

What about the oral bioavailability [2] of the same molecule?
Its oral bioavailability is “superior”.

And the hygroscopicity (hygroscopicity)?
Its hygroscopicity is “significantly less hygroscopic”.

And the hygroscopicity (hygroscopicity; [6])?
The hygroscopicity was “less”.

What about the pharmacokinetics [3] of the same molecule?
The pharmacokinetics was “improved”.

What about the solubility in water (solubility in water) of the same molecule?
Its solubility in water is “significantly more soluble”.

With `CNC(=O)c1cc(F)ccc1CNC(=O)c1nc(N2CCCCS2(=O)=O)c2cccnc2c1O` [Compound A, 5-(1,1-dioxido-1,2-thiazinan-2-yl)-N-{4-fluoro-2-[(methylamino)carbonyl]benzyl}-8-hydroxy-1,6-naphthyridine-7-carboxamide] as the molecule, how does the “inhibition of acute HIV infection of T-lymphoid cells” value [4] read?
Its value is “active”.

And the “inhibition of HIV integrase (strand transfer)” value (HIV integrase)?
Its value is “potent inhibitor”.

With `CNC(=O)c1cc(F)ccc1CNC(=O)c1nc(N2CCCCS2(=O)=O)c2cccnc2c1[O-].[K+]` [Salt A1, Potassium 5-(1,1-dioxido-1,2-thiazinan-2-yl)-7-[({4-fluoro-2-[(methylamino)carbonyl]benzyl}amino)carbonyl]-1,6-naphthyridin-8-olate] as the molecule, how does the solubility trend [5] read?
Its solubility trend is “increasing solubility from 1 to 5 vol % reversed to lower solubility at 10 vol. %”.

From patent US20060211687A1, “Potassium salt of an hiv integrase inhibitor” (priority 2003, published 2006)
